Laboratory results reported in PubChem BioAssay AID192 (DTP/NCI, 2004).
Where “and” joins values, the source holds several entries; their conditions need not be identical. Equal values may be shown once. Inconclusive results and toxic doses are left out.

Tested on: BDF1 mice, B16 melanoma ip, median survival T/C
Test: NCI In Vivo Anticancer Drug Screen. Data for tumor model B16 Melanoma (intraperitoneal) in B6D2F1 (BDF1) mice
Conditions: endpoint: median survival time, higher = longer survival
Procedure, shortened: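 The ratio T/C compares compound-treated mice with vehicle-treated controls, using survival or tumor size as the endpoint in a transplantable tumor model.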

[1] = dose: 25.0 mg/kg/injection, schedule: Q01DX009 (ip), vehicle: saline with Tween-80
[2] = dose: 50.0 mg/kg/injection, schedule: Q01DX009 (ip), vehicle: saline with Tween-80
[3] = dose: 100.0 mg/kg/injection, schedule: Q01DX009 (ip), vehicle: saline with Tween-80
[4] = dose: 6.25 mg/kg/injection, schedule: Q01DX009 (ip), vehicle: saline with Tween-80
[5] = dose: 12.5 mg/kg/injection, schedule: Q01DX009 (ip), vehicle: saline with Tween-80
[6] = dose: 100.0 mg/kg/injection, schedule: Q01DX009 (ip), vehicle: saline
[7] = dose: 100.0 mg/kg/injection, schedule: Q01DX009 (ip), vehicle: Klucel (hydroxypropylcellulose) (HPC)
[8] = dose: 200.0 mg/kg/injection, schedule: Q01DX009 (ip), vehicle: Klucel (hydroxypropylcellulose) (HPC)
[9] = dose: 400.0 mg/kg/injection, schedule: Q01DX009 (ip), vehicle: Klucel (hydroxypropylcellulose) (HPC)

## CO[C@H](C(=O)[C@@H](O)[C@@H](C)O)[C@@H]1Cc2cc3cc(OC4CC(OC5CC(O)C(O)C(C)O5)C(O)C(C)O4)c(C)c(O)c3c(O)c2C(=O)[C@H]1OC1CC(OC2CC(OC3CC(C)(O)C(O)C(C)O3)C(O)C(C)O2)C(O)C(C)O1 (some centres not stated)
dose: 0.02 mg/kg/injection, schedule: Q01DX009 (ip), vehicle: water
  T/C: 103 % of control
dose: 0.05 mg/kg/injection, schedule: Q01DX009 (ip), vehicle: water
  T/C: 106 % of control
dose: 0.06 mg/kg/injection, schedule: Q01DX009 (ip), vehicle: saline
  T/C: 101 % of control
dose: 0.1 mg/kg/injection, schedule: Q01DX009 (ip), vehicle: water
  T/C: 100 % of control and 103 % of control
dose: 0.12 mg/kg/injection, schedule: Q01DX009 (ip), vehicle: saline
  T/C: 101 % of control
dose: 0.12 mg/kg/injection, schedule: Q01DX009 (ip), vehicle: water
  T/C: 96 % of control
dose: 0.13 mg/kg/injection, schedule: Q01DX009 (ip), vehicle: clinical formulation
  T/C: 100 % of control
dose: 0.13 mg/kg/injection, schedule: Q01DX009 (ip), vehicle: saline
  T/C: 100 % of control and 109 % of control
dose: 0.13 mg/kg/injection, schedule: Q01DX009 (ip), vehicle: water
  T/C: 94 % of control
dose: 0.2 mg/kg/injection, schedule: Q01DX009 (ip), vehicle: water
  T/C: 111 % of control
dose: 0.25 mg/kg/injection, schedule: Q01DX009 (ip), vehicle: clinical formulation
  T/C: 102 % of control
dose: 0.25 mg/kg/injection, schedule: Q01DX009 (ip), vehicle: saline
  T/C: 100 % of control and 104 % of control and 111 % of control
dose: 0.25 mg/kg/injection, schedule: Q01DX009 (ip), vehicle: water
  T/C: 98 % of control
dose: 0.4 mg/kg/injection, schedule: Q01DX009 (ip), vehicle: water
  T/C: 111 % of control
dose: 0.5 mg/kg/injection, schedule: Q01DX009 (ip), vehicle: clinical formulation
  T/C: 100 % of control
dose: 0.5 mg/kg/injection, schedule: Q01DX009 (ip), vehicle: saline
  T/C: 97 % of control and 105 % of control and 121 % of control
dose: 0.5 mg/kg/injection, schedule: Q01DX009 (ip), vehicle: water
  T/C: 98 % of control
dose: 0.6 mg/kg/injection, schedule: Q01DX009 (ip), vehicle: water
  T/C: 102 % of control
dose: 0.75 mg/kg/injection, schedule: Q01DX009 (ip), vehicle: saline
  T/C: 104 % of control
dose: 1.0 mg/kg/injection, schedule: Q01DX009 (ip), vehicle: clinical formulation
  T/C: 105 % of control
dose: 1.0 mg/kg/injection, schedule: Q01DX009 (ip), vehicle: saline
  T/C: 97 % of control and 106 % of control and 109 % of control
dose: 62.0 micrograms/kg/injection, schedule: Q01DX009 (ip), vehicle: saline
  T/C: 98 % of control
dose: 125.0 micrograms/kg/injection, schedule: Q01DX009 (ip), vehicle: saline
  T/C: 105 % of control
dose: 125.0 micrograms/kg/injection, schedule: Q01DX009 (ip), vehicle: water
  T/C: 94 % of control
dose: 250.0 micrograms/kg/injection, schedule: Q01DX009 (ip), vehicle: saline
  T/C: 119 % of control
dose: 500.0 micrograms/kg/injection, schedule: Q01DX009 (ip), vehicle: saline
  T/C: 111 % of control
dose: 500.0 micrograms/kg/injection, schedule: Q01DX009 (ip), vehicle: water
  T/C: 110 % of control
dose: 1000.0 micrograms/kg/injection, schedule: Q01DX009 (ip), vehicle: saline
  T/C: 115 % of control
dose: 1000.0 micrograms/kg/injection, schedule: Q01DX009 (ip), vehicle: water
  T/C: 109 % of control

## CCNC(C)(C)C(SSSC(c1cccs1)C(C)(C)NCC)c1cccs1 (configuration not stated)
dose: 25.0 mg/kg/injection, schedule: Q01DX009 (ip), vehicle: Klucel (hydroxypropylcellulose) (HPC)
  T/C: 100 % of control
dose: 50.0 mg/kg/injection, schedule: Q01DX009 (ip), vehicle: Klucel (hydroxypropylcellulose) (HPC)
  T/C: 94 % of control

## O=[N+]([O-])C(CO)(CO)CO
dose: 100.0 mg/kg/injection, schedule: Q04DX003 (ip), vehicle: saline
  T/C: 110 % of control
dose: 200.0 mg/kg/injection, schedule: Q04DX003 (ip), vehicle: saline
  T/C: 110 % of control
dose: 400.0 mg/kg/injection, schedule: Q04DX003 (ip), vehicle: saline
  T/C: 96 % of control

## CC(=O)OC1C(OC(C)=O)C2C(C)CC3OC(=O)C(C)C3CC2(C)C1OC(C)=O (configuration not stated)
[1]
  T/C: 111 % of control
[2]
  T/C: 110 % of control
[3]
  T/C: 106 % of control

## CSCCC(NC(=O)CN(C)C(=O)OCc1ccccc1)C(=O)O (configuration not stated)
[2]
  T/C: 100 % of control
[3]
  T/C: 100 % of control

## COc1ccccc1N=NC(C#N)C(N)=O (configuration not stated)
[4]
  T/C: 91 % of control
[5]
  T/C: 94 % of control
[1]
  T/C: 87 % of control
[2]
  T/C: 112 % of control

## C=C1CCN(c2ccc(C)cc2)C1=O
dose: 4.0 mg/kg/injection, schedule: Q01DX009 (ip), vehicle: saline + alcohol
  T/C: 91 % of control
dose: 8.0 mg/kg/injection, schedule: Q01DX009 (ip), vehicle: saline + alcohol
  T/C: 88 % of control
dose: 16.0 mg/kg/injection, schedule: Q01DX009 (ip), vehicle: saline + alcohol
  T/C: 94 % of control
dose: 32.0 mg/kg/injection, schedule: Q01DX009 (ip), vehicle: saline + alcohol
  T/C: 89 % of control
dose: 64.0 mg/kg/injection, schedule: Q01DX009 (ip), vehicle: saline + alcohol
  T/C: 104 % of control

## NC(C(=O)O)c1ccc(CBr)cc1 (configuration not stated)
dose: 12.5 mg/kg/injection, schedule: Q01DX009 (ip), vehicle: acid diluted with saline
  T/C: 152 % of control
dose: 25.0 mg/kg/injection, schedule: Q01DX009 (ip), vehicle: acid diluted with saline
  T/C: 157 % of control
dose: 100.0 mg/kg/injection, schedule: Q01DX009 (ip), vehicle: acid diluted with saline
  T/C: 152 % of control
dose: 200.0 mg/kg/injection, schedule: Q01DX009 (ip), vehicle: acid diluted with saline
  T/C: 157 % of control

## ClCc1cccc2c(CCl)cccc12
[4]
  T/C: 98 % of control
[5]
  T/C: 98 % of control
[1]
  T/C: 102 % of control
dose: 25.0 mg/kg/injection, schedule: Q01DX009 (ip), vehicle: suspension in saline
  T/C: 100 % of control
dose: 50.0 mg/kg/injection, schedule: Q01DX009 (ip), vehicle: suspension in saline
  T/C: 107 % of control
dose: 100.0 mg/kg/injection, schedule: Q01DX009 (ip), vehicle: suspension in saline
  T/C: 90 % of control

## C=C1C(=O)OC2/C=C(\C)CC/C=C(/C=O)C(OC(=O)C(C)C)C(O)C12 (configuration not stated)
dose: 1.0 mg/kg/injection, schedule: Q01DX009 (ip), vehicle: saline with Tween-80
  T/C: 97 % of control
dose: 2.0 mg/kg/injection, schedule: Q01DX009 (ip), vehicle: saline with Tween-80
  T/C: 89 % of control and 97 % of control
dose: 4.0 mg/kg/injection, schedule: Q01DX009 (ip), vehicle: saline with Tween-80
  T/C: 100 % of control and 103 % of control
dose: 8.0 mg/kg/injection, schedule: Q01DX009 (ip), vehicle: saline with Tween-80
  T/C: 100 % of control

## CC(N)Cc1cn(C)c2ccccc12 (configuration not stated)
dose: 6.25 mg/kg/injection, schedule: Q01DX009 (ip), vehicle: saline
  T/C: 122 % of control
dose: 12.5 mg/kg/injection, schedule: Q01DX009 (ip), vehicle: saline
  T/C: 105 % of control
dose: 25.0 mg/kg/injection, schedule: Q01DX009 (ip), vehicle: saline
  T/C: 102 % of control
dose: 50.0 mg/kg/injection, schedule: Q01DX009 (ip), vehicle: saline
  T/C: 105 % of control
[6]
  T/C: 88 % of control

## CCOC(=O)c1ccc(=O)[nH]c1.[Ag]
dose: 3.13 mg/kg/injection, schedule: Q01DX009 (ip), vehicle: Klucel (hydroxypropylcellulose) (HPC)
  T/C: 108 % of control
dose: 6.25 mg/kg/injection, schedule: Q01DX009 (ip), vehicle: Klucel (hydroxypropylcellulose) (HPC)
  T/C: 100 % of control
dose: 12.5 mg/kg/injection, schedule: Q01DX009 (ip), vehicle: Klucel (hydroxypropylcellulose) (HPC)
  T/C: 91 % of control

## CCN1C(=O)NC(=O)/C(=C/N(CCO)CCO)C1=O
[7]
  T/C: 111 % of control
[8]
  T/C: 107 % of control
[9]
  T/C: 96 % of control

## COc1ccc(C(C#N)CC(=O)c2ccc3c(c2)OCO3)cc1OC (configuration not stated)
[6]
  T/C: 103 % of control
dose: 200.0 mg/kg/injection, schedule: Q01DX009 (ip), vehicle: saline
  T/C: 100 % of control
dose: 400.0 mg/kg/injection, schedule: Q01DX009 (ip), vehicle: saline
  T/C: 100 % of control

## Cc1c2cc[n+](C)c(C)c2cc2c1[nH]c1ccccc12
dose: 10.0 mg/kg/injection, schedule: Q04DX003 (ip), vehicle: water
  T/C: 95 % of control
dose: 20.0 mg/kg/injection, schedule: Q04DX003 (ip), vehicle: water
  T/C: 92 % of control
dose: 40.0 mg/kg/injection, schedule: Q04DX003 (ip), vehicle: water
  T/C: 94 % of control

## Clc1ccc(/C(=[C](\[Hg]/[C](=C(\c2ccccc2)c2ccc(Cl)cc2)c2ccccc2)c2ccccc2)c2ccccc2)cc1
[7]
  T/C: 105 % of control
[8]
  T/C: 100 % of control
[9]
  T/C: 94 % of control
